# Experimental data: US20250074920A1, “MACROCYCLIC COMPOUNDS AND USE AS KINASE INHIBITORS” (BLOSSOMHILL THERAPEUTICS, INC., priority 2022, published 2025)
# pKd: −log10 of the molar value.
# Experiments:
# Test in all cases: KINOMEscan kinase binding assay
# KIT = details: at 1 μM
# How it was run: (§1)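 Steps: biotinylated ligand loaded onto streptavidin beads (30 min RT), then biotin-blocked; kinase, beads and compound combined in SeaBlock/PBS/Tween/DTT buffer for 1 h RT; beads washed; kinase eluted with 0.5 μM non-biotinylated ligand; eluate quantified by qPCR.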
# BLK = details: at 1 μM
# How it was run: as §1
# [1] = test system: ABL1(F317I)-nonphosphorylated; details: at 1 μM
# How it was run: as §1
# MST1R = details: at 1 μM
# How it was run: as §1
# FLT3-autoinhibited = details: at 1 μM
# How it was run: as §1
# FAK = details: at 1 μM
# How it was run: as §1
# TXK = details: at 1 μM
# How it was run: as §1
# PDGFRB = details: at 1 μM
# How it was run: as §1
# MET(M1250T) = details: at 1 μM
# How it was run: as §1
# LYN = details: at 1 μM
# How it was run: as §1
# FLT3(D835H) = details: at 1 μM
# How it was run: as §1
# FYN = details: at 1 μM
# How it was run: as §1
# KIT(D816H) = details: at 1 μM
# How it was run: as §1
# FGFR1 = details: at 1 μM
# How it was run: as §1
# EPHA3 = details: at 1 μM
# How it was run: (§2)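 qPCR read-out of kinase retained on ligand-coated streptavidin beads. Binding buffer: 20% SeaBlock, 0.17×PBS, 0.05% Tween 20, 6 mM DTT; 1 h RT with shaking. % Ctrl = (test − positive control)/(negative control − positive control)×100; lower values mean stronger binding.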
# SYK = details: at 1 μM
# How it was run: as §1
# DDR1 = details: at 1 μM
# How it was run: as §1
# RET(V804L) = details: at 1 μM
# How it was run: as §1
# ITK = details: at 1 μM
# How it was run: as §1
# TRKC = details: at 1 μM
# How it was run: as §1
# MERTK = details: at 1 μM
# How it was run: as §1
# PYK2 = details: at 1 μM
# How it was run: as §1
# ZAP70 = details: at 1 μM
# How it was run: as §1
# FGFR3(G697C) = details: at 1 μM
# How it was run: as §1
# [2] = test system: ABL1(T315I)-nonphosphorylated; details: at 1 μM
# How it was run: as §1
# BTK = details: at 1 μM
# How it was run: as §1
# TRKB = details: at 1 μM
# How it was run: as §1
# KIT(V559D) = details: at 1 μM
# How it was run: as §1
# EGFR(E746-A750del) = details: at 1 μM
# How it was run: as §1
# EPHA6 = details: at 1 μM
# How it was run: as §2
# [3] = test system: JAK3(JH1domain-catalytic); details: for % Ctrl: JAK3(JH1domain-catalytic), at 1 μM; for pKd: read-out: JAK3(JH1 domain-catalytic) Kd
# How it was run: as §2
# MUSK = details: at 1 μM
# How it was run: as §1
# VEGFR2 = details: at 1 μM
# How it was run: as §1
# SRC = details: at 1 μM
# How it was run: as §1
# [4] = test system: ABL1(Q252H)-nonphosphorylated; details: at 1 μM
# How it was run: as §1
# MET(Y1235D) = details: at 1 μM
# How it was run: as §1
# RET(M918T) = details: at 1 μM
# How it was run: as §1
# HCK = details: at 1 μM
# How it was run: as §1
# EPHB1 = details: at 1 μM
# How it was run: as §1
# LCK = details: at 1 μM
# How it was run: as §1
# LTK = details: at 1 μM
# How it was run: as §1
# CSF1R = details: at 1 μM
# How it was run: as §1
compound,measurement,setting,value
"Cc1cc2c([nH]1)/C=C1\C(=O)Nc3ccc(cc31)-c1c(nn(C)c1C)OCCCN(C)C2=O [Cpd. 1, [3a(4)Z]-6,9,15,16-tetramethyl-9,10,11,12-tetrahydro-15H-1,17-(ethanediylidene)pyrazolo[4,3-n]dipyrrolo[3,2-g:3′,4′-j][1,5]oxazacyclopentadecine-3,8(2H,5H)-dione]",% Ctrl,KIT,91%
same,% Ctrl,BLK,87%
same,% Ctrl,[1],91%
same,% Ctrl,MST1R,100%
same,% Ctrl,FLT3-autoinhibited,92%
same,% Ctrl,FAK,85%
same,% Ctrl,TXK,100%
same,% Ctrl,PDGFRB,100%
same,% Ctrl,MET(M1250T),83%
same,% Ctrl,LYN,100%
same,% Ctrl,FLT3(D835H),96%
same,% Ctrl,FYN,91%
same,% Ctrl,KIT(D816H),74%
same,% Ctrl,FGFR1,100%
same,% Ctrl,EPHA3,86%
same,% Ctrl,SYK,98%
same,% Ctrl,DDR1,97%
same,% Ctrl,RET(V804L),82%
same,% Ctrl,ITK,89%
same,% Ctrl,TRKC,94%
same,% Ctrl,MERTK,78%
same,% Ctrl,PYK2,100%
same,% Ctrl,ZAP70,94%
same,% Ctrl,FGFR3(G697C),100%
same,% Ctrl,[2],83%
same,% Ctrl,BTK,94%
same,% Ctrl,TRKB,87%
same,% Ctrl,KIT(V559D),91%
same,% Ctrl,EGFR(E746-A750del),95%
same,% Ctrl,EPHA6,94%
same,% Ctrl,[3],81%
same,pKd,[3],< 5.00
same,% Ctrl,MUSK,93%
same,% Ctrl,VEGFR2,93%
same,% Ctrl,SRC,89%
same,% Ctrl,[4],87%
same,% Ctrl,MET(Y1235D),98%
same,% Ctrl,RET(M918T),84%
same,% Ctrl,HCK,93%
same,% Ctrl,EPHB1,87%
same,% Ctrl,LCK,95%
same,% Ctrl,LTK,74%
same,% Ctrl,CSF1R,98%
"Cc1cc2c([nH]1)/C=C1\C(=O)Nc3ccc(cc31)-c1c(nn(C)c1C)COCCN(C)C2=O [Cpd. 2, [3a(4)Z]-6,9,15,16-tetramethyl-10,11,13,15-tetrahydro-2H-1,17-(ethanediylidene)pyrazolo[4,3-m]dipyrrolo[3,2-f:3′,4′-i][1,4]oxazacyclopentadecine-3,8(5H,9H)-dione]",% Ctrl,KIT,100%
same,% Ctrl,BLK,98%
same,% Ctrl,[1],100%
same,% Ctrl,MST1R,100%
same,% Ctrl,FLT3-autoinhibited,83%
same,% Ctrl,FAK,96%
same,% Ctrl,TXK,100%
same,% Ctrl,PDGFRB,79%
same,% Ctrl,MET(M1250T),98%
same,% Ctrl,LYN,74%
same,% Ctrl,FLT3(D835H),31%
same,% Ctrl,FYN,100%
same,% Ctrl,KIT(D816H),98%
same,% Ctrl,FGFR1,100%
same,% Ctrl,EPHA3,99%
same,% Ctrl,SYK,100%
same,% Ctrl,DDR1,100%
same,% Ctrl,RET(V804L),80%
same,% Ctrl,ITK,80%
same,% Ctrl,TRKC,22%
same,% Ctrl,MERTK,100%
same,% Ctrl,PYK2,100%
same,% Ctrl,ZAP70,96%
same,% Ctrl,FGFR3(G697C),93%
same,% Ctrl,[2],17%
same,% Ctrl,BTK,100%
same,% Ctrl,TRKB,12%
same,% Ctrl,KIT(V559D),98%
same,% Ctrl,EGFR(E746-A750del),100%
same,% Ctrl,EPHA6,100%
same,% Ctrl,[3],49%
same,pKd,[3],6.29
same,% Ctrl,MUSK,100%
same,% Ctrl,VEGFR2,48%
same,% Ctrl,SRC,100%
same,% Ctrl,[4],57%
same,% Ctrl,MET(Y1235D),87%
same,% Ctrl,RET(M918T),92%
same,% Ctrl,HCK,100%
same,% Ctrl,EPHB1,99%
same,% Ctrl,LCK,100%
same,% Ctrl,LTK,100%
same,% Ctrl,CSF1R,82%
"Cc1cc2c([nH]1)/C=C1\C(=O)Nc3c(Cl)cc(cc31)-c1cn(C)nc1COC[C@@H](C)NC2=O [Cpd. 3, [3a(4)Z,10R]-20-chloro-6,10,15-trimethyl-10,11,13,15-tetrahydro-2H-1,17-(ethanediylidene)pyrazolo[4,3-m]dipyrrolo[3,2-f:3′,4′-i][1,4]oxazacyclopentadecine-3,8(5H,9H)-dione]",% Ctrl,KIT,100%
same,% Ctrl,BLK,92%
same,% Ctrl,[1],100%
same,% Ctrl,MST1R,98%
same,% Ctrl,FLT3-autoinhibited,93%
same,% Ctrl,FAK,100%
same,% Ctrl,TXK,91%
same,% Ctrl,PDGFRB,100%
same,% Ctrl,MET(M1250T),100%
same,% Ctrl,LYN,90%
same,% Ctrl,FLT3(D835H),100%
same,% Ctrl,FYN,100%
same,% Ctrl,KIT(D816H),94%
same,% Ctrl,FGFR1,80%
same,% Ctrl,EPHA3,75%
same,% Ctrl,SYK,68%
same,% Ctrl,DDR1,98%
same,% Ctrl,RET(V804L),98%
same,% Ctrl,ITK,100%
same,% Ctrl,TRKC,100%
same,% Ctrl,MERTK,98%
same,% Ctrl,PYK2,94%
same,% Ctrl,ZAP70,55%
same,% Ctrl,FGFR3(G697C),89%
same,% Ctrl,[2],100%
same,% Ctrl,BTK,86%
same,% Ctrl,TRKB,100%
same,% Ctrl,KIT(V559D),100%
same,% Ctrl,EGFR(E746-A750del),98%
same,% Ctrl,EPHA6,93%
same,% Ctrl,[3],70%
same,pKd,[3],5.11
same,% Ctrl,MUSK,98%
same,% Ctrl,VEGFR2,92%
same,% Ctrl,SRC,100%
same,% Ctrl,[4],92%
same,% Ctrl,MET(Y1235D),100%
same,% Ctrl,RET(M918T),100%
same,% Ctrl,HCK,100%
same,% Ctrl,EPHB1,100%
same,% Ctrl,LCK,87%
same,% Ctrl,LTK,100%
same,% Ctrl,CSF1R,100%
"C[C@@H]1COCc2nn(C)cc2-c2cc(Cl)c3c(c2)/C(=C/c2[nH]ccc2C(=O)N1)C(=O)N3 [Cpd. 4, [3a(4)Z,10R]-20-chloro-10,15-dimethyl-10,11,13,15-tetrahydro-2H-1,17-(ethanediylidene)pyrazolo[4,3-m]dipyrrolo[3,2-f:3′,4′-i][1,4]oxazacyclopentadecine-3,8(5H,9H)-dione]",% Ctrl,KIT,100%
same,% Ctrl,BLK,100%
same,% Ctrl,[1],95%
same,% Ctrl,MST1R,100%
same,% Ctrl,FLT3-autoinhibited,93%
same,% Ctrl,FAK,96%
same,% Ctrl,TXK,78%
same,% Ctrl,PDGFRB,100%
same,% Ctrl,MET(M1250T),100%
same,% Ctrl,LYN,87%
same,% Ctrl,FLT3(D835H),65%
same,% Ctrl,FYN,93%
same,% Ctrl,KIT(D816H),80%
same,% Ctrl,FGFR1,75%
same,% Ctrl,EPHA3,83%
same,% Ctrl,SYK,64%
same,% Ctrl,DDR1,20%
same,% Ctrl,RET(V804L),95%
same,% Ctrl,ITK,99%
same,% Ctrl,TRKC,100%
same,% Ctrl,MERTK,48%
same,% Ctrl,PYK2,92%
same,% Ctrl,ZAP70,56%
same,% Ctrl,FGFR3(G697C),79%
same,% Ctrl,[2],100%
same,% Ctrl,BTK,78%
same,% Ctrl,TRKB,100%
same,% Ctrl,KIT(V559D),100%
same,% Ctrl,EGFR(E746-A750del),96%
same,% Ctrl,EPHA6,97%
same,% Ctrl,[3],12%
same,pKd,[3],7.23
same,% Ctrl,MUSK,98%
same,% Ctrl,VEGFR2,94%
same,% Ctrl,SRC,100%
same,% Ctrl,[4],86%
same,% Ctrl,MET(Y1235D),100%
same,% Ctrl,RET(M918T),98%
same,% Ctrl,HCK,100%
same,% Ctrl,EPHB1,97%
same,% Ctrl,LCK,88%
same,% Ctrl,LTK,100%
same,% Ctrl,CSF1R,92%
